Here are results for 23 compounds from US11369583B2, “Long-acting prodrugs of rasagiline, preparing methods and uses thereof” (GUANGZHOU HENOVCOM BIOSCIENCE CO. LTD, priority 2017, dated 2022).

The nature of data set [1]: Solubility of prodrug compounds of Rasagiline in phosphate buffer pH 7.4. In kind it is physicochemical. The source says: A melting point and solubility (phosphate buffer with pH of 7.4) of synthesized prodrug compounds of Rasagiline were detected, and the results are shown in table 1: […]
Data set [2] can be described thus: Pharmacokinetics experiment: Rasagiline in blood plasma after intramuscular injection of prodrug suspensions into beagles. It is filed as in vivo. The following applies: beagle, intramuscular injectable suspension. The method, then: One common male beagle was used for each group, and they were forbidden to eat for 12 hours before administering drugs, and drank water freely meanwhile. Injectable suspensions of Example 13, Example 15, Example 14, Example 20, Example 8 were intramuscularly injected in a dosage of 0.47 mg/kg Rasagiline (1.72 mg/kg, 1.56 mg/kg, 1.64 mg/kg, 1.80 mg/kg, 1.16 mg/kg of prodrug respectively after conversion).
Treatment of blood plasma sample: The blood plasma sample was placed in an ice bath; 30 μL of methanol and 20 μL of interior label (2 μg/mL apigenin dissolved in 50% methanol) were added into 200 μL of the blood plasma sample and mixed through vortex, and then 4 mL of ethyl acetate was added and mixed through vortex. After being centrifuged at 9000 g for 2 minutes, an organic phase was separated and dried in vacuum, and then 150 μL of methanol was added for re-dissolution. 30 μL of a prepared sample was taken for analyzing.
Data analysis: The sample was detected by LC-MS/MS, and analyzed by a DAS 2.0 software to calculate pharmacokinetic parameters according to blood drug concentration, providing parameters such as AUC (0-t), AUC(0-∞), MRT(0-t), MRT(0-∞), Cmax, Tmax, and t1/2, etc.

In data set [3] the target is Monoamine oxidase (MAO-B) (Homo sapiens, UniProt P27338). The settings on record: monoamine oxidase inhibitor; stronger than Selegiline; cited from earlier work.
Where [4] appears, read: pH 7.4, aqueous buffer, phosphate buffer with pH of 7.4, read-out: SOLUBILITY

≈ marks a conversion by molar mass, not a printed value. Like-named read-outs stand apart in the source and are kept apart here. A value given as a limit tells only on which side of the number the result lay.

Sequence of Monoamine oxidase (MAO-B) (P27338 whole entry, species assumed): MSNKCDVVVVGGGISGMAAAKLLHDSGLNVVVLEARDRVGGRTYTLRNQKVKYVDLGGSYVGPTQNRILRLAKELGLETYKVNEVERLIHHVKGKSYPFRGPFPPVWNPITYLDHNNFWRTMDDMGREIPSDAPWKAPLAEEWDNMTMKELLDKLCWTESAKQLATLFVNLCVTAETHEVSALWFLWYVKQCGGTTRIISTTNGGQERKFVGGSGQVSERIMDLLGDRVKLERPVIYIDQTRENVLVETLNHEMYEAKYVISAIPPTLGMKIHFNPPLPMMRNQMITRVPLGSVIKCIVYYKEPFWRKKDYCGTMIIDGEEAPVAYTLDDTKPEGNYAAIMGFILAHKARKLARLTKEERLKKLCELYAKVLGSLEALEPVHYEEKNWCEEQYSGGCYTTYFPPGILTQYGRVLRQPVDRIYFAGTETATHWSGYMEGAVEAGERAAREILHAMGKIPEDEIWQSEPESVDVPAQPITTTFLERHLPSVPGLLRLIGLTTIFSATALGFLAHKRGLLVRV

On to `C#CCN(C(=O)OCOC(=O)CCCNC(=O)CCCCCCCCCCCCCCCCCCC)[C@@H]1CCc2ccccc21` [Example 13, methyl ((Rasagiline-N-formyl)oxy)-icosanamidobutanoate], for which the melting point was 80 to 82 °C. For the same compound, in data set [1] (setting [4]), the solubility was below 5 µg/mL. Moreover, the “release of the prodrug and conversion into Rasagiline (in words)” value in data set [2] is “steadier”.
As for `C#CCN(C(=O)OCOC(=O)CCCNC(=O)CCCCCCCCCCC)[C@@H]1CCc2ccccc21` [Example 16, methyl ((Rasagiline-N-formyl)oxy)4-dodecanamidobutanoate], the melting point was 56.1 to 59.4 °C. Also, the solubility in data set [1] (setting [4]) is below 5 µg/mL.
For `C#CCN(C(=O)OCOC(=O)Cc1cccc2ccccc12)[C@@H]1CCc2ccccc21` [Example 2, methyl ((Rasagiline-N-formyl)oxy)-naphthalene acetate] the same measures were 66 to 70 °C and below 5 µg/mL.
For `C#CCN(C(=O)OCOC(=O)CCCNC(=O)CCCCCCCCCCCCCCCCC)[C@@H]1CCc2ccccc21` [Example 14, methyl ((Rasagiline-N-formyl)oxy)-stearamidobutanoate] the same measures were 76 to 78 °C and below 5 µg/mL.
Taken in the same sequence, the figures for `C#CCN(C(=O)OCOC(=O)CCCCNC(=O)CCCCCCCCCCCCCCCCC)[C@@H]1CCc2ccccc21` [Example 22, methyl ((Rasagiline-N-formyl)oxy)5-stearamidopentanoate] were 75.3 to 77.1 °C and below 5 µg/mL.
Take `C#CCN(C(=O)OCOC(=O)CCCC[C@@H]1SC[C@@H]2NC(=O)N[C@@H]21)[C@@H]1CCc2ccccc21` [Example 7, methyl ((Rasagiline-N-formyl)oxy)-biotin methyl ester]: the solubility in data set [1] (setting [4]) worked out at 31.7 µg/mL (≈ 67.2 µM).
For the compound `C#CCN(C(=O)OCOC(=O)/C=C/c1ccc(O)c(OC)c1)[C@@H]1CCc2ccccc21` [Example 8, methyl ((Rasagiline-N-formyl)oxy)-ferulate], the melting point was 130.4 to 133.8 °C. Besides, in data set [1] (setting [4]), the solubility was below 5 µg/mL.
`C#CCN(C(=O)OCOC(=O)CC[C@@H](C)C1CCC2C3C[C@H](O)[C@@H]4C[C@H](O)CC[C@]4(C)C3CC[C@@]21C)[C@@H]1CCc2ccccc21` (some centres unmarked) [Example 6, methyl ((Rasagiline-N-formyl)oxy)-hyodeoxycholate] had a melting point below 50 °C. Further, the solubility in data set [1] (pH 7.4, aqueous buffer) was below 5 µg/mL.
Consider `C#CCN(C(=O)OCOC(=O)CCC(=O)NCCCCCCCCCCCCCCCCCC)[C@@H]1CCc2ccccc21` [Example 23, methyl ((Rasagiline-N-formyl)oxy)4-octadecylamidosuccinate], for which the solubility in data set [1] (setting [4]) is below 5 µg/mL.
Consider `C#CCN(C(=O)OCOC(=O)CCCCCCCCCCCCCCCCCCC)[C@@H]1CCc2ccccc21` [Example 5, methyl ((Rasagiline-N-formyl)oxy)-icosanoate], for which the melting point was below 25 °C. Also, the solubility in data set [1] (setting [4]) is below 5 µg/mL.
Taken in the same sequence, the figures for `C#CCN(C(=O)OCOC(=O)CCCNC(=O)CCCCCCCCCCCCC)[C@@H]1CCc2ccccc21` [Example 17, methyl ((Rasagiline-N-formyl)oxy)4-tetradecanamidobutanorate] were 66.3 to 71.8 °C and below 5 µg/mL.
Taken in the same sequence, the figures for `C#CCN(C(=O)OCOC(=O)CCCNC(=O)CCCCCCCCCCCCCCC)[C@@H]1CCc2ccccc21` [Example 15, methyl ((Rasagiline-N-formyl)oxy)-palmitamidobutanoate] were 73 to 75 °C and below 5 µg/mL.
Taken in the same sequence, the figures for `C#CCN(C(=O)OCOC(=O)CCCCCCCCCCCCCCC)[C@@H]1CCc2ccccc21` [Example 1, methyl ((Rasagiline-N-formyl)oxy)-palmitate] were below 25 °C and below 5 µg/mL.
Compound `C#CCN(C(=O)OCOC(=O)CCCCCCCCCCCCCCCCC)[C@@H]1CCc2ccccc21` [Example 3, methyl ((Rasagiline-N-formyl)oxy)-stearate] had a melting point below 25 °C. For the same compound, the solubility in data set [1] (setting [4]) is below 5 µg/mL.
Taken in the same sequence, the figures for `C#CCN(C(=O)OCOC(=O)C(C)(C)C)[C@@H]1CCc2ccccc21` [Example 4, methyl ((Rasagiline-N-formyl)oxy)-pivalate] were below 25 °C and below 5 µg/mL.
The compound `C#CCN(C(=O)OCOC(=O)CCCNC(=O)CCCCCCCCCCCCCCCCCCCCC)[C@@H]1CCc2ccccc21` [Example 20, methyl ((Rasagiline-N-formyl)oxy)4-docosanamidobutanoate] came in with a melting point of 55.4 to 56.2 °C. Further, the solubility in data set [1] (setting [4]) was below 5 µg/mL. Moreover, the “release of the prodrug and conversion into Rasagiline (in words)” value in data set [2] is reported as “steadier”.
The compound `C#CCN(C(=O)OCOC(=O)CCCCNC(=O)CCCCCCCCCCCCCCC)[C@@H]1CCc2ccccc21` [Example 21, methyl ((Rasagiline-N-formyl)oxy)5-palmitamidopentanoate] showed a melting point of 58.3 to 58.9 °C. Further, in data set [1] (setting [4]), the solubility is below 5 µg/mL.
The compound `C#CCN(C(=O)OCOC(=O)CC[C@@H](C)C1CCC2C3CC[C@@H]4C[C@H](O)CC[C@]4(C)C3C[C@H](O)[C@@]21C)[C@@H]1CCc2ccccc21` (some centres unmarked) [Example 11, methyl ((Rasagiline-N-formyl)oxy)-deoxycholate] registered a melting point below 50 °C. For the same compound, the solubility in data set [1] (pH 7.4, aqueous buffer) was below 5 µg/mL.
Taken in the same sequence, the figures for `C#CCN(C(=O)OCOC(=O)CC[C@@H](C)C1CCC2C3C(CC[C@@]21C)[C@@]1(C)CC[C@@H](O)C[C@H]1C[C@@H]3O)[C@@H]1CCc2ccccc21` (some centres unmarked) [Example 10, methyl ((Rasagiline-N-formyl)oxy)-ursodesoxycholate] were below 50 °C and below 5 µg/mL.
With `C#CCN[C@@H]1CCc2ccccc21` [Rasagiline], the “inhibiting effect compared to Selegiline” value in data set [3] is 5-10 times.
The compound `C#CCN(C(=O)OCOC(=O)CCCCCNC(=O)CCCCCCCCCCCCCCCCCCC)[C@@H]1CCc2ccccc21` [Example 12, methyl ((Rasagiline-N-formyl)oxy)-icosanamidohexanoate] came in with a melting point of 77.2 to 80.8 °C. Also, the solubility in data set [1] (setting [4]) was below 5 µg/mL.
For the compound “methyl ((Rasagiline-N-formyl)oxy)4-stearamidohexanoate [Example 18]”, in data set [1] (pH 7.4), the solubility is below 5 µg/mL.
In the case of `C#CCN(C(=O)OCOC(=O)CC[C@@H](C)C1CCC2C3C(CC[C@@]21C)[C@@]1(C)CC[C@@H](O)C[C@H]1C[C@H]3O)[C@@H]1CCc2ccccc21` (some centres unmarked) [Example 9, methyl ((Rasagiline-N-formyl)oxy)-chenodeoxycholate], the melting point was below 50 °C. For the same compound, the solubility in data set [1] (pH 7.4, aqueous buffer) was below 5 µg/mL.
